# Tests used:
# [1] = human gut metagenome, 24 h, 2 µM
# [2] = (§1) The drug is tested on WLS-069 corresponding to human gut metagenome with ENA study accession number: PRJEB37062 and ENA sample accession number: ERS12561748 for biotransformation under anaerobic condition. The drug concentrations were measured over 9 timepoints collected between 0 and 24 hours of incubation by liquid-chromatography-coupled mass spectrometry (LC–MS); conditions: 2 µM
# [3] = as §1, with “WLS-310” for “WLS-069”, “ERS12561785” for “ERS12561748”; conditions: 2 µM
# [4] = as §1, with “Z-030” for “WLS-069”, “mouse” for “human”, “ERS12561829” for “ERS12561748”; conditions: 2 µM
# [5] = human gut metagenome, 24 h, 2 µM; remark: listed apart in the source
# [6] = as §1, with “WLS-090” for “WLS-069”, “ERS12561753” for “ERS12561748”; conditions: 2 µM
# [7] = as §1, with “WLS-052” for “WLS-069”, “ERS12561747” for “ERS12561748”; conditions: 2 µM
# [8] = human gut metagenome, 24 h, 2 µM; remark: listed apart in the source
# [9] = as §1, with “Z-009” for “WLS-069”, “pig” for “human”, “ERS12561809” for “ERS12561748”; conditions: 2 µM
# [10] = as §1, with “Z-008” for “WLS-069”, “to” for “to human gut”, “ERS12561808” for “ERS12561748”; conditions: 2 µM
# [11] = human gut metagenome, 24 h, 2 µM; remark: listed apart in the source
# [12] = human gut metagenome, 24 h, 2 µM; remark: listed apart in the source
# [13] = as §1, with “Z-017” for “WLS-069”, “mouse” for “human”, “ERS12561816” for “ERS12561748”; conditions: 2 µM
# [14] = as §1, with “WLS-039” for “WLS-069”, “ERS12561746” for “ERS12561748”; conditions: 2 µM
# [15] = human gut metagenome, 24 h, 2 µM; remark: listed apart in the source
# [16] = as §1, with “Z-016” for “WLS-069”, “mouse” for “human”, “ERS12561815” for “ERS12561748”; conditions: 2 µM
# [17] = human gut metagenome, 24 h, 2 µM; remark: listed apart in the source
# [18] = human gut metagenome, 24 h, 2 µM; remark: listed apart in the source
# [19] = as §1, with “Z-023” for “WLS-069”, “to” for “to human gut”, “ERS12561822” for “ERS12561748”; conditions: 2 µM
# [20] = as §1, with “WLS-220” for “WLS-069”, “ERS12561769” for “ERS12561748”; conditions: 2 µM
# Further: call rule not given here.
Compound,Bacterial Biotransformation [1],Bacterial Biotransformation [2],Bacterial Biotransformation [3],Bacterial Biotransformation [4],Bacterial Biotransformation [5],Bacterial Biotransformation [6],Bacterial Biotransformation [7],Bacterial Biotransformation [8],Bacterial Biotransformation [9],Bacterial Biotransformation [10],Bacterial Biotransformation [11],Bacterial Biotransformation [12],Bacterial Biotransformation [13],Bacterial Biotransformation [14],Bacterial Biotransformation [15],Bacterial Biotransformation [16],Bacterial Biotransformation [17],Bacterial Biotransformation [18],Bacterial Biotransformation [19],Bacterial Biotransformation [20]
CCCCC1=NC2(CCCC2)C(=O)N1Cc1ccc(-c2ccccc2-c2nnn[nH]2)cc1 [IRBESARTAN],Compound metabolized,Compound metabolized,Compound metabolized,Compound NOT metabolized,Compound metabolized,Compound metabolized,Compound metabolized,Compound metabolized,Compound metabolized,Compound NOT metabolized,Compound metabolized,Compound metabolized,Compound NOT metabolized,Compound metabolized,Compound metabolized,Compound NOT metabolized,Compound metabolized,Compound metabolized,Compound metabolized,Compound metabolized
NC(CO)(CO)CO.O=C(c1ccccc1)c1ccc2n1CCC2C(=O)O (stereo not given) [KETOROLAC TROMETHAMINE],Compound metabolized,Compound metabolized,Compound metabolized,Compound NOT metabolized,Compound metabolized,Compound metabolized,Compound metabolized,Compound metabolized,Compound NOT metabolized,Compound NOT metabolized,Compound metabolized,Compound metabolized,Compound NOT metabolized,Compound metabolized,Compound metabolized,Compound metabolized,Compound metabolized,Compound metabolized,Compound metabolized,Compound metabolized
CC[C@H](C)C(=O)O[C@H]1C[C@@H](C)C=C2C=C[C@H](C)[C@H](CC[C@@H]3C[C@@H](O)CC(=O)O3)[C@H]21 [LOVASTATIN],Compound metabolized,Compound NOT metabolized,Compound NOT metabolized,Compound metabolized,Compound NOT metabolized,Compound NOT metabolized,Compound NOT metabolized,Compound NOT metabolized,Compound NOT metabolized,Compound NOT metabolized,Compound NOT metabolized,Compound NOT metabolized,Compound metabolized,Compound NOT metabolized,Compound NOT metabolized,Compound NOT metabolized,Compound NOT metabolized,Compound NOT metabolized,Compound metabolized,Compound NOT metabolized
COc1ccc2[nH]c([S+]([O-])Cc3ncc(C)c(OC)c3C)nc2c1 (stereo not given) [OMEPRAZOLE],Compound metabolized,Compound metabolized,Compound metabolized,Compound metabolized,Compound metabolized,Compound metabolized,Compound metabolized,Compound metabolized,Compound NOT metabolized,Compound metabolized,Compound metabolized,Compound metabolized,Compound NOT metabolized,Compound metabolized,Compound metabolized,Compound metabolized,Compound metabolized,Compound metabolized,Compound NOT metabolized,Compound metabolized
O=C(O)CCc1nc(-c2ccccc2)c(-c2ccccc2)o1 [OXAPROZIN],Compound metabolized,Compound metabolized,Compound metabolized,Compound NOT metabolized,Compound metabolized,Compound metabolized,Compound metabolized,Compound metabolized,Compound NOT metabolized,Compound NOT metabolized,Compound metabolized,Compound metabolized,Compound NOT metabolized,Compound metabolized,Compound metabolized,Compound metabolized,Compound metabolized,Compound metabolized,Compound metabolized,Compound metabolized
Cc1nc2n(c(=O)c1CCN1CCC(c3noc4cc(F)ccc34)CC1)CCCC2O (stereo not given) [PALIPERIDONE],Compound metabolized,Compound metabolized,Compound metabolized,Compound metabolized,Compound metabolized,Compound metabolized,Compound metabolized,Compound NOT metabolized,Compound metabolized,Compound NOT metabolized,Compound metabolized,Compound metabolized,Compound NOT metabolized,Compound metabolized,Compound metabolized,Compound NOT metabolized,Compound NOT metabolized,Compound metabolized,Compound metabolized,Compound metabolized
CC(C)(C)NC[C@H](O)COc1ccccc1C1CCCC1.CC(C)(C)NC[C@H](O)COc1ccccc1C1CCCC1.O=S(=O)(O)O [PENBUTOLOL SULFATE],Compound metabolized,Compound metabolized,Compound metabolized,Compound NOT metabolized,Compound metabolized,Compound metabolized,Compound metabolized,Compound metabolized,Compound metabolized,Compound NOT metabolized,Compound metabolized,Compound metabolized,Compound NOT metabolized,Compound metabolized,Compound metabolized,Compound NOT metabolized,Compound metabolized,Compound metabolized,Compound metabolized,Compound metabolized
CCOc1ccc(NC(C)=O)cc1 [PHENACETIN],Compound NOT metabolized,Compound NOT metabolized,Compound NOT metabolized,Compound NOT metabolized,Compound NOT metabolized,Compound NOT metabolized,Compound NOT metabolized,Compound NOT metabolized,Compound NOT metabolized,Compound NOT metabolized,Compound NOT metabolized,Compound NOT metabolized,Compound NOT metabolized,Compound NOT metabolized,Compound NOT metabolized,Compound NOT metabolized,Compound NOT metabolized,Compound NOT metabolized,Compound NOT metabolized,Compound NOT metabolized

# Source: ChEMBL document CHEMBL5724914, “Linking interpersonal differences in gut microbiota composition and drug biotransformation activity” (2024)
